Test results taken from ChEMBL document CHEMBL1165981, “Identification of novel quinazolin-4(3H)-ones as inhibitors of thermolysin, the prototype of the M4 family of proteinases” (Bioorg Med Chem, 2010).

Tests used:
Thermolysin [1] = target: T1, Thermolysin (Bacillus thermoproteolyticus, UniProt P00800); assay: Inhibition of Bacillus thermoproteolyticus thermolysin after 15 mins by microplate spectrophotometric analysis in presence of 0.5 to 2 mM substrate FaGLa
T1 sequence (P00800 whole entry): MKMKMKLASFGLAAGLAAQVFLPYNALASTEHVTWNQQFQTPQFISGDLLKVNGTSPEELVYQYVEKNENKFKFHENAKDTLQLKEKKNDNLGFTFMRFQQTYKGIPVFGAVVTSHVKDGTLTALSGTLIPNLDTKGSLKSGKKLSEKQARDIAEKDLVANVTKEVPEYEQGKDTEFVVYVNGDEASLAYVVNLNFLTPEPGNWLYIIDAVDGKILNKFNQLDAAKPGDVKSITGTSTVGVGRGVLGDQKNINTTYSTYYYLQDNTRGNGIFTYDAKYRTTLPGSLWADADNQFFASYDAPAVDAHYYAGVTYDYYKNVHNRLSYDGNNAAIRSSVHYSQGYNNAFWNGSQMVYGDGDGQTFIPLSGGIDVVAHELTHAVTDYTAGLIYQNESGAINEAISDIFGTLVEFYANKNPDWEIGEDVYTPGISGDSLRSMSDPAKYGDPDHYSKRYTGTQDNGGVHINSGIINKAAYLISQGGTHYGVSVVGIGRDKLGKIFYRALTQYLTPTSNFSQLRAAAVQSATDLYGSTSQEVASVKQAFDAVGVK

Thermolysin [2] = target: T1, Thermolysin; assay: Inhibition of Bacillus thermoproteolyticus thermolysin after 15 mins by microplate spectrophotometric analysis in presence of 1.0 mM substrate FaGLa

Q: `Cc1nc2ccccc2c(=O)n1N` was tested. Which Ki (Thermolysin [1]) did it give?
A: The Ki was 54.9 µM.

Q: What about the IC50 (Thermolysin [2]; read-out: IC50) of the same compound?
A: The IC50 was 54.9 µM.

Q: With `Nn1c(C(F)(F)F)nc2ccccc2c1=O` as the compound, how does the Ki (Thermolysin [1]) read?
A: The Ki was 37.9 µM.

Q: And the IC50 (Thermolysin [2]; read-out: IC50)?
A: The IC50 was 37.9 µM.

Q: `NNc1nc2ccccc2c(=O)n1N` was tested. Which IC50 (Thermolysin [2]) did it give?
A: The IC50 was “Not Active”.

Q: `O=c1c2ccccc2ncn1CCO` was tested. Which IC50 (Thermolysin [2]) did it give?
A: The IC50 was “Not Active”.

Q: With `Cc1nc2ccccc2c(=O)n1N=C(N)N` as the compound, how does the IC50 (Thermolysin [2]) read?
A: Its IC50 is “Not Active”.

Q: Which IC50 (Thermolysin [2]) does the source give for `Cc1nc2ccccc2c(=O)n1NC(=O)CCl` here?
A: The IC50 was “Not Active”.

Q: `O=c1[nH]c(-c2ccc(Cl)cc2)nc2ccccc12` was tested. Which Ki (Thermolysin [1]) did it give?
A: Its Ki is 1.25 µM.

Q: And the IC50 (Thermolysin [2]; read-out: IC50)?
A: The IC50 was 1.25 µM.

Q: For `CC(=O)Nn1c(-c2ccccc2)nc2ccccc2c1=O`, which IC50 (Thermolysin [2]) is on record?
A: The IC50 was “Not Active”.

Q: How did the IC50 (Thermolysin [2]) turn out when `Cc1cc(C)c(-n2c(-c3ccccc3)nc3ccccc3c2=O)c(C)c1` was run?
A: The IC50 was “Not Active”.

Q: How did the IC50 (Thermolysin [2]) turn out when `Cc1nc2ccccc2c(=O)n1CCO` was run?
A: Its IC50 is “Not Active”.

Q: With `O=C(Nc1ccccc1C(=O)NCCCn1c(-c2ccccc2)nc2ccccc2c1=O)c1ccccc1` as the compound, how does the IC50 (Thermolysin [2]) read?
A: The IC50 was “Not Active”.

Q: Which Ki (Thermolysin [1]) does the source give for `CO/C(C)=N/n1c(-c2ccccc2)nc2ccccc2c1=O` here?
A: Its Ki is 106000 µM.

Q: What about the IC50 (Thermolysin [2]; read-out: IC50) of the same compound?
A: Its IC50 is 123000 µM.

Q: How did the IC50 (Thermolysin [2]) turn out when `Cc1nc2ccccc2c(=O)n1NC(=O)c1ccccc1` was run?
A: Its IC50 is “Not Active”.

Q: Which Ki (Thermolysin [1]) does the source give for `CC(C)=NN1C(=O)c2ccccc2NC1(C)C` here?
A: The Ki was 0.243 µM.

Q: And the IC50 (Thermolysin [2]; read-out: IC50)?
A: The IC50 was 0.248 µM.

Q: Which IC50 (Thermolysin [2]) does the source give for `O=C1c2ccccc2NC(c2ccccc2)N1/N=C/c1ccccc1` (stereo unspecified) here?
A: The IC50 was “Not Active”.

Q: `O=c1c2ccccc2nc2n1NC(c1ccccc1)N(/N=C/c1ccccc1)C2` (stereo unspecified) was tested. Which IC50 (Thermolysin [2]) did it give?
A: Its IC50 is “Not Active”.

Q: Which IC50 (Thermolysin [2]) does the source give for `C/C(=N\n1c(-c2ccccc2)nc2ccccc2c1=O)Nc1cccc2ccccc12` here?
A: Its IC50 is “Not Active”.

Q: For `CCc1nc2ccccc2c(=O)[nH]1`, which IC50 (Thermolysin [2]) is on record?
A: Its IC50 is “Not Active”.

Q: `O=c1[nH]c(-c2ccc([N+](=O)[O-])cc2)nc2ccccc12` was tested. Which IC50 (Thermolysin [2]) did it give?
A: The IC50 was “Not Active”.

Q: How did the IC50 (Thermolysin [2]) turn out when `Cc1ccc(C(=O)Nn2c(C)nc3ccccc3c2=O)cc1` was run?
A: The IC50 was “Not Active”.

Q: How did the IC50 (Thermolysin [2]) turn out when `CCOC(=O)Cc1nc2ccccc2c(=O)[nH]1` was run?
A: Its IC50 is “Not Active”.

Q: For `COC(=O)c1ccccc1NC(=O)C(F)(F)F`, which IC50 (Thermolysin [2]) is on record?
A: Its IC50 is “Not Active”.

Q: How did the Ki (Thermolysin [1]) turn out when `O=c1c2ccccc2nc(C(F)(F)F)n1-c1ccccc1` was run?
A: The Ki was 0.0115 µM.

Q: And the IC50 (Thermolysin [2]; read-out: IC50)?
A: Its IC50 is 0.0115 µM.

Q: `Cc1ccc(-c2nc3ccccc3c(=O)n2CCCN)cc1` was tested. Which IC50 (Thermolysin [2]) did it give?
A: Its IC50 is “Not Active”.

Q: `Nn1c(-c2ccc(Cl)cc2)nc2ccccc2c1=O` was tested. Which Ki (Thermolysin [1]) did it give?
A: Its Ki is 10100 µM.

Q: What about the IC50 (Thermolysin [2]; read-out: IC50) of the same compound?
A: Its IC50 is 12700 µM.

Q: With `Nn1c(-c2ccccc2)nc2ccccc2c1=O` as the compound, how does the IC50 (Thermolysin [2]) read?
A: The IC50 was “Not Active”.

Q: Which Ki (Thermolysin [1]) does the source give for `Cc1ccc(-c2nc3ccccc3c(=O)n2-c2nccs2)cc1` here?
A: Its Ki is 59.3 µM.

Q: What about the IC50 (Thermolysin [2]; read-out: IC50) of the same compound?
A: The IC50 was 76.8 µM.

Q: For `O=c1c2ccccc2nc(-c2ccccc2)n1-c1nccs1`, which IC50 (Thermolysin [2]) is on record?
A: The IC50 was “Not Active”.

Q: Which Ki (Thermolysin [1]) does the source give for `Nn1c(-c2ccc([N+](=O)[O-])cc2)nc2ccccc2c1=O` here?
A: Its Ki is 3120 µM.

Q: What about the IC50 (Thermolysin [2]; read-out: IC50) of the same compound?
A: Its IC50 is 3120 µM.

Q: Which IC50 (Thermolysin [2]) does the source give for `O=c1c2ccccc2nc(-c2ccccc2)n1-c1ccc(I)cc1` here?
A: Its IC50 is “Not Active”.

Q: For `Cc1ccc(-c2nc3ccccc3c(=O)n2CCN)cc1`, which IC50 (Thermolysin [2]) is on record?
A: Its IC50 is “Not Active”.

Q: For `CC(=O)Nn1c(C)nc2ccccc2c1=O`, which IC50 (Thermolysin [2]) is on record?
A: Its IC50 is “Not Active”.
